Results as given in patent publication US4082761A, “Triazolo[4,3-a][1,4]benzodiazepinium quaternary salts” (The Upjohn Company, priority 1973, dated 1978).
Structures can show the parent of a compound that is named as a salt.

What was measured:
Type in all cases: in vivo
mice [1] = experiment: Dish test (mice remaining in the dish for more than 3 minutes); settings: Mus musculus, ip, 0.05 h; intraperitoneal injection in mice; 50% of the mice remain in the dish for more than 3 minutes; read-out: ED50 D (dish test)
Protocol: (§1) Tranquilizing effects of the compounds of this invention are shown by the following tests in mice:
Dish test: Mice in Petri dishes (10 cm. diameter, 5 cm. high, partially embedded in wood shavings), climb out in a very short time, when not treated. Mice remaining in the dish for more than 3 minutes indicates tranquilization. ED50 equals the dose of test compound at which 50% of the mice remain in the dish.

mice [2] = experiment: Chimney test (mice fail to back up and out of a vertical glass cylinder within 30 seconds); settings: Mus musculus, ip; intraperitoneal injection in mice; 50% of the mice failed to back out within 30 seconds; read-out: ED50 Ch (chimney test)
Source text: as §1
Chimney test: [Med. Exp. 4, 145 (1961)]: The test determines the ability of mice to back up and out of a vertical glass cylinder within 30 seconds. At the effective dosage, 50% of the mice failed doing it.

mice [3] = experiment: Nicotine antagonism test (nicotine salicylate 2 mg./kg.); settings: Mus musculus, ip, intraperitoneal injection in mice, nicotine salicylate 2 mg./kg. thirty minutes later
Protocol: as §1
Nicotine antagonism test: Mice in a group of 6 are injected with the test compound. Thirty minutes later the mice including control (untreated) mice are injected with nicotine salicylate (2 mg./kg.). The control mice show overstimulation, i.e., (1) running convulsions followed by (2) tonic extensor fits; followed by (3) death.
Ni = nicotine antagonism (2) and (3) tests.

mice [4] = experiment: Pedestal test (mice stay on the pedestal for more than 1 minute); settings: Mus musculus, ip, 1 min, intraperitoneal injection in mice, read-out: ED50 P (pedestal test)
Protocol: as §1
Pedestal test: The untreated mouse leaves a standard pedestal in less than a minute to climb back to the floor of the standard mouse box. Tranquilized mice will stay on the pedestal for more than 1 minute.

[5] = (2) tonic extensor fits, read-out: ED50 Ni(2) (nicotine antagonism (2) test)
[6] = (3) death, read-out: ED50 Ni(3) (nicotine antagonism (3) test)

SMILES	ED50 (mice [1])	ED50 (mice [2])	ED50 (mice [3]; [5])	ED50 (mice [3]; [6])	ED50 (mice [4])
Cc1n[n+](C)c2n1-c1ccc(Cl)cc1C(c1ccccc1)=NC2 [8-Chloro-1,3-dimethyl-6-phenyl-4H-s-triazolo[4,3-a][1,4]benzodiazepinium chloride sesquihydrate]	79 mg/kg	36 mg/kg	22 mg/kg	22 mg/kg	79 mg/kg
C[n+]1nc([O-])n2c1CN=C(c1ccccc1Cl)c1cc(Cl)ccc1-2 [8-Chloro-6-(o-chlorophenyl)-1-hydroxy-3-methyl-4H-s-triazolo[4,3-a][1,4]benzodiazepinium hydroxide inner salt]	1.2 mg/kg	1.6 mg/kg	0.3 mg/kg	0.44 mg/kg	3.2 mg/kg
